Results published in patent EP0386076B1, “PHOSPHORYLED DERIVATIVES OF CARDIODILATINE/ANF PEPTIDES” (FORSSMANN, Wolf-Georg, Prof. Dr. med., priority 1987, dated 1993).
Ends that are not written are not given here.

Columns and labels:
[1] = system: c-AMP-abhängiger Proteinkinase; conditions: peptide as substrate of c-AMP-abhängiger Proteinkinase; read-out: Michaeliskonstante Km; cited from earlier work
[2] = system: Muskelstreifen von Kaninchenaorta; experiment: Relaxation of norepinephrine-precontracted rabbit aorta muscle strips in an organ bath; parameters: species or system Neuseeland-Kaninchen
Excerpt: Muskelstreifen von Kaninchenaorta wurden zunächst mit einer Lösung von Norepinephrin (10⁻⁷ M) kontrahiert. Nachdem sich konstante Bedingungen eingestellt hatten, wurden die Peptide hinzugefügt (Position des Pfeils).
Die Abbildung 6 zeigt die Reaktion von Kaninchenaorta-Muskelstreifen auf die schrittweise Zugabe von nicht phosphoryliertem, phosphoryliertem und danach wieder nicht phosphoryliertem Alpha-hANaP (CDD-28). Die Verbindungen wurden jeweils so zugegeben, daß sie im Untersuchungsbad in einer Endkonzentration von 0,3 x 10⁻⁹ M vorlagen.
Aortae von Neuseeland-Kaninchen wurden präpariert. Die Muskelspannung wurde an Muskelstreifen in einem Organbad, enthaltend physiologische Kochsalzlösung, gemessen. Die Streifen wurden vorkontrahiert mit einer Lösung von 10⁻⁶ M Norepinephrin, danach bei vollständiger Relaxation. Für den Assay wurde eine weitere Kontraktion mit 10⁻⁷ M Norepinephrin ausgelöst. Nachdem konstante Kontraktionsbedingungen erreicht waren, wurden die Peptide appliziert.
Zur Kontrolle wurde nicht phosphoryliertes Alpha-hANaP unter gleichen Bedingungen inkubiert, jedoch ohne Anwesenheit von ATP. Phosphoryliertes und nicht phosphoryliertes Alpha-hANaP wurde zu den vorkontrahierten Kaninchenaorta-Muskelstreifen gegeben, so daß sie in einer Endkonzentration von 0,3 x 10⁻⁹ M vorlagen. […]

Substance | Km [1] [µM] | relatives Relaxationsvermögen ([2]; Abbildung 7, phosphorylated versus non-phosphorylated form at corresponding concentration) | Relaxationsaktivität ([2]; Beispiel 6, tested analogously to Beispiel 5, several concentrations)
Arg¹⁰¹-Tyr¹²⁶ | 0.5 |  | 
phosphorylierte CDD-32: CDD-32 (Urodilatin, ANF/CDD-95-126) phosphorylated according to Beispiel 1; Formel I with R = Aminosäuren 95-98 (TAPRSLRRSSCFGGRMDRIGAQSGLGCNSFRY; ends and bridges not checked; also: phosphorylated (phosphate group), site not given here; UniProt P01160 120-151, looked up, fragment) |  | deutlich geringeres Relaxationsvermögen | deutlich geringere Relaxation
